Assay [1] deals with NCI-H1373 (human lung adenocarcinoma) cells. Put plainly: Cell proliferation assay (CellTiter-Glo), NCI-H1373. It is filed as cell-based. To be noted: read-out: NCI-H1373 GI50.
In assay [2] the test system is CT26 (mouse colon adenocarcinoma) cells. Nature of the assay: Cell proliferation assay (CellTiter-Glo), CT26. It is filed as cell-based. The note with it: 6 days.
A further assay concerns the target His-GST-PARP7 (Homo sapiens (Human), UniProt Q7Z3E1). Nature of the assay: PARP7 biochemical assay. The note with it: read-out: PARP7 IC50.
Assay [3] relates to HARA (human lung squamous cell carcinoma) cells. Put plainly: Cell proliferation assay (CellTiter-Glo), HARA. The class given is cell-based. To be noted: read-out: HARA GI50.
For a further assay, the target named is PARP2 (Homo sapiens (Human), UniProt Q9UGN5). Nature of the assay: PARP2 biochemical assay.
[4] abbreviates: Homo sapiens, NCI-H1373, 144 h, 6 days, CellTiter-Glo.
Setting [5] is: Homo sapiens, 144 h, 6 days, CellTiter-Glo.

Where two headings read alike, the source gives them in different places.

The text below walks through data of patent US20260055079A1, “PHTHALAZINONE COMPOUNDS AS PARP7 INHIBITORS” (AZKARRA THERAPEUTICS, INC., priority 2022, published 2026).

PARP2, sequence (Q9UGN5 whole entry): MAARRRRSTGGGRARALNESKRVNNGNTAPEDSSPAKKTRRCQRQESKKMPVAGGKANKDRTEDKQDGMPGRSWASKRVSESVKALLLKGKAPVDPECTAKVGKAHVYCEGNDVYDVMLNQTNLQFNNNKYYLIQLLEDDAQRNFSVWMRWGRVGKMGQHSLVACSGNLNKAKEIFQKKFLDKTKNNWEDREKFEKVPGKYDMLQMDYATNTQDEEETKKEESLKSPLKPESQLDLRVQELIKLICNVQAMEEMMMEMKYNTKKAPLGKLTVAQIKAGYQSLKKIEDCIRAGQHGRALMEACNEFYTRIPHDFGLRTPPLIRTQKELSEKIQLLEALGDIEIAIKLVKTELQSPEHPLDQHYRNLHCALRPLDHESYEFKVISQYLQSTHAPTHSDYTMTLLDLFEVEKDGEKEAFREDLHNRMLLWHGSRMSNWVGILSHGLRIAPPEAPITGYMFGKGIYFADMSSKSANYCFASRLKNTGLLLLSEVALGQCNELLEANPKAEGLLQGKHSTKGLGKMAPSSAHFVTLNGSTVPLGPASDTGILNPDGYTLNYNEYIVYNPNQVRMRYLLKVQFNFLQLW
His-GST-PARP7, sequence (Q7Z3E1 whole entry): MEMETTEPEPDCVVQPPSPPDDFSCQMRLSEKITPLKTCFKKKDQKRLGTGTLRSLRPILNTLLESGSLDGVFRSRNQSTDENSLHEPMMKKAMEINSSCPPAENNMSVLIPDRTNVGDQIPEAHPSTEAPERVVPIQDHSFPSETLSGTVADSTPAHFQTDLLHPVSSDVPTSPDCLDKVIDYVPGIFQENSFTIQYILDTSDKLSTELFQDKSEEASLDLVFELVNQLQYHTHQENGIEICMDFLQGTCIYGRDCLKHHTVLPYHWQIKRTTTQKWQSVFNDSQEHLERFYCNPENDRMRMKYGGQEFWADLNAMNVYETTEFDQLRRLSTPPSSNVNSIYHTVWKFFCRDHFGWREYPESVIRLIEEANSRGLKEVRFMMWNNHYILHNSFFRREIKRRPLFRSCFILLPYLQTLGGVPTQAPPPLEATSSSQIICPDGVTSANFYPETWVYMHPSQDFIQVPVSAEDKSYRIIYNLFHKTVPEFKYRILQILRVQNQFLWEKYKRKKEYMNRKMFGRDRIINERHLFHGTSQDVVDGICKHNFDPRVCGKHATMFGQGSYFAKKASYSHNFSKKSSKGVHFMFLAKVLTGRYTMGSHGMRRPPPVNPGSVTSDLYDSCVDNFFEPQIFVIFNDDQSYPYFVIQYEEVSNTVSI

Turning to “6-Cyclobutoxy-4-(4-fluoro-3-(2-(hydroxymethyl)-4,5,6,7-tetrahydropyrazolo[1,5-a]pyrazine-5-carbonyl)benzyl)phthalazin-1(2H)-one [Example 168]”, the GI50 in assay [1] (6 days, CellTiter-Glo) was above 5000 nM; in assay [2], above 5000 nM; in assay [3] (6 days, CellTiter-Glo), above 5000 nM. Besides, the IC50 at His-GST-PARP7 is 100 to 500 nM.

In the case of `N#Cc1ccc(N2CCN(C(=O)c3cc(Cc4n[nH]c(=O)c5ccc(OC6CCC6)cc45)ccc3F)[C@@H]3C[C@@H]32)nc1` (stereo in doubt) [Example 150, 6-(5-(5-((7-cyclobutoxy-4-oxo-3,4-dihydrophthalazin-1-yl)methyl)-2-fluorobenzoyl)-2,5-diazabicyclo[4.1.0]heptan-2-yl)nicotinonitrile], the concentration for 50% growth inhibition (GI50) in assay [1] (setting [4]) lay in the range of 100 to 1000 nM; in assay [2] (Mus musculus, CT26, 144 h), 1000 to 5000 nM; in assay [3] (setting [5]), 1000 to 5000 nM. Besides, the IC50 on His-GST-PARP7 is below 50 nM.

Regarding `C#CCOc1ccc2c(=O)[nH]nc(Cc3ccc(F)c(C(=O)N4CCN(c5ccc(C#N)cn5)CC4)c3)c2c1` [Example 3, 6-(4-(2-fluoro-5-((4-oxo-7-(prop-2-yn-1-yloxy)-3,4-dihydrophthalazin-1-yl)methyl)benzoyl)piperazin-1-yl)nicotinonitrile], the half-inhibitory concentration (IC50) on PARP2 (read-out: PARP2 IC50) and on His-GST-PARP7 was below 50 nM each time. The concentration for 50% growth inhibition (GI50) is below 100 nM in assay [1] (Homo sapiens, NCI-H1373, 144 h) and 1000 to 5000 nM in assay [3] (Homo sapiens, 144 h).

Turning to `COc1ccc2c(=O)[nH]nc(Cc3cccc(C(=O)N4CCN(c5ccc(C#N)cn5)CC4)c3)c2c1` [Example 4, 6-(4-(3-((7-Methoxy-4-oxo-3,4-dihydrophthalazin-1-yl)methyl)benzoyl)piperazin-1-yl)nicotinonitrile], the concentration for 50% growth inhibition (GI50) in assay [1] (setting [4]) is below 100 nM; in assay [2] (Mus musculus, CT26, 144 h), 100 to 1000 nM; in assay [3] (setting [5]) it was 1000 to 5000 nM. The IC50 at His-GST-PARP7 is below 50 nM.

Turning to `N#Cc1ccc(N2CCN(C(=O)c3cc(Cc4n[nH]c(=O)c5ccc(OC6CCC6)cc45)ccc3F)CC2)nc1` [Example 14, 6-(4-(5-((7-Cyclobutoxy-4-oxo-3,4-dihydrophthalazin-1-yl)methyl)-2-fluorobenzoyl)piperazin-1-yl)nicotinonitrile], the concentration for half-maximal inhibition (IC50) at PARP2 was 500 to 2000 nM; at His-GST-PARP7, below 50 nM. The GI50 in assay [1] (Homo sapiens, NCI-H1373, 144 h) is below 100 nM; in assay [3] (Homo sapiens, 144 h), 1000 to 5000 nM.

As for `N#Cc1ccc(N2CCN(C(=O)c3cc(Cc4n[nH]c(=O)c5ccc(OC6CC(F)(F)C6)cc45)ccc3F)CC2)nc1` [Example 51, 6-(4-(5-((7-(3,3-Difluorocyclobutoxy)-4-oxo-3,4-dihydrophthalazin-1-yl)methyl)-2-fluorobenzoyl)piperazin-1-yl)nicotinonitrile], the GI50 in assay [1] (setting [4]) was below 100 nM; in assay [2] (Mus musculus, CT26, 144 h), 1000 to 5000 nM; in assay [3] (setting [5]), above 5000 nM. At His-GST-PARP7, the IC50 was below 50 nM.

Take `N#Cc1ccc(N2CCN(C(=O)c3cc(Cc4n[nH]c(=O)c5ccc(S(=O)(=O)C6CCC6)cc45)ccc3F)CC2)nc1` [Example 53, 6-(4-(5-((7-(cyclobutylsulfonyl)-4-oxo-3,4-dihydrophthalazin-1-yl)methyl)-2-fluorobenzoyl)piperazin-1-yl)nicotinonitrile]: the concentration for 50% growth inhibition (GI50) is above 5000 nM in assay [1] (setting [4]); above 5000 nM in assay [2] (Mus musculus, CT26, 144 h); above 5000 nM in assay [3] (setting [5]). For the same molecule, on His-GST-PARP7, the IC50 fell in the range of 100 to 500 nM.

`CC#Cc1ccc2c(=O)[nH]nc(Cc3ccc(F)c(C(=O)N4CCN(c5ccc(C#N)cn5)CC4)c3)c2c1OC` [Example 81, 6-(4-(2-Fluoro-5-((8-methoxy-4-oxo-7-(prop-1-yn-1-yl)-3,4-dihydrophthalazin-1-yl)methyl)benzoyl)piperazin-1-yl)nicotinonitrile]: the GI50 is below 100 nM in assay [1] (setting [4]); below 100 nM in assay [2] (Mus musculus, CT26, 144 h); 100 to 1000 nM in assay [3] (setting [5]). Besides, the IC50 at His-GST-PARP7 is below 50 nM.

As to `COc1cc2c(Cc3ccc(F)c(C(=O)N4CCN(c5ccc(C#N)cn5)CC4)c3)n[nH]c(=O)c2cn1` [Example 91, 6-(4-(2-fluoro-5-((7-methoxy-4-oxo-3,4-dihydropyrido[4,3-d]pyridazin-1-yl)methyl)benzoyl)piperazin-1-yl)nicotinonitrile], the GI50 was 1000 to 5000 nM in assay [1] (setting [4]); above 5000 nM in assay [2] (Mus musculus, CT26, 144 h); above 5000 nM in assay [3] (setting [5]). In addition, the 50% inhibitory concentration (IC50) on His-GST-PARP7 was below 50 nM.

As for `N#Cc1ccc(N2CCN(C(=O)c3cc(Cc4n[nH]c(=O)c5c(C(F)(F)F)cc(OC6CCC6)cc45)ccc3F)CC2)nc1` [Example 93, 6-(4-(5-((7-Cyclobutoxy-4-oxo-5-(trifluoromethyl)-3,4-dihydrophthalazin-1-yl)methyl)-2-fluorobenzoyl)piperazin-1-yl)nicotinonitrile], the 50% growth inhibitory concentration (GI50) in assay [1] (setting [4]) is below 100 nM; in assay [2] (Mus musculus, CT26, 144 h), 1000 to 5000 nM; in assay [3] (setting [5]), 1000 to 5000 nM. Besides, at His-GST-PARP7, the half-inhibitory concentration (IC50) was below 50 nM.

Regarding `N#Cc1ccc(N2CCCN(C(=O)c3cc(Cc4n[nH]c(=O)c5ccc(OC6CCC6)cc45)ccc3F)CC2)nc1` [Example 94, 6-(4-(5-((7-Cyclobutoxy-4-oxo-3,4-dihydrophthalazin-1-yl)methyl)-2-fluorobenzoyl)-1,4-diazepan-1-yl)nicotinonitrile], the concentration for 50% growth inhibition (GI50) in assay [1] (setting [4]) was below 100 nM; in assay [2] (Mus musculus, CT26, 144 h) it was 1000 to 5000 nM; in assay [3] (setting [5]) it was 1000 to 5000 nM. In addition, on His-GST-PARP7, the IC50 is below 50 nM.

With `COc1ccnc(N2CCN(C(=O)c3cc(Cc4n[nH]c(=O)c5ccc(OC6CCC6)cc45)ccc3F)CC2)c1` [Example 128, 6-cyclobutoxy-4-(4-fluoro-3-(4-(4-methoxypyridin-2-yl)piperazine-1-carbonyl)benzyl)phthalazin-1(2H)-one], the 50% growth inhibitory concentration (GI50) lay within 100 to 1000 nM in assay [1] (setting [4]); 1000 to 5000 nM in assay [2] (Mus musculus, CT26, 144 h); 1000 to 5000 nM in assay [3] (setting [5]). Moreover, the IC50 at His-GST-PARP7 is below 50 nM.

With `N#Cc1ccc(N2CCN(C(=O)c3cc(Cc4n[nH]c(=O)c5ccc(OC6CCC6)cc45)ccc3F)CC2)nc1C(F)(F)F` [Example 135, 6-(4-(5-((7-cyclobutoxy-4-oxo-3,4-dihydrophthalazin-1-yl)methyl)-2-fluorobenzoyl)piperazin-1-yl)-2-(trifluoromethyl)nicotinonitrile], the 50% growth inhibitory concentration (GI50) in assay [1] (setting [4]) was 100 to 1000 nM; in assay [2] (Mus musculus, CT26, 144 h) it was above 5000 nM; in assay [3] (setting [5]), above 5000 nM. Also, the 50% inhibitory concentration (IC50) on His-GST-PARP7 lay in the range of 50 to 100 nM.

`Cc1cc(C#N)cnc1N1CCN(C(=O)c2cc(Cc3n[nH]c(=O)c4ccc(OC5CCC5)cc34)ccc2F)CC1` [Example 138, 6-(4-(5-((7-cyclobutoxy-4-oxo-3,4-dihydrophthalazin-1-yl)methyl)-2-fluorobenzoyl)piperazin-1-yl)-5-methylnicotinonitrile]: the GI50 in assay [1] (setting [4]) was 100 to 1000 nM; in assay [2] (Mus musculus, CT26, 144 h) it was above 5000 nM; in assay [3] (setting [5]) it was 1000 to 5000 nM. Further, at His-GST-PARP7, the IC50 is below 50 nM.

As to `N#Cc1ccc(-c2nnc3n2CCN(C(=O)c2cc(Cc4n[nH]c(=O)c5ccc(OC6CCC6)cc45)ccc2F)C3)nc1` [Example 139, 6-(7-(5-((7-cyclobutoxy-4-oxo-3,4-dihydrophthalazin-1-yl)methyl)-2-fluorobenzoyl)-5,6,7,8-tetrahydro-[1,2,4]triazolo[4,3-a]pyrazin-3-yl)nicotinonitrile], the concentration for 50% growth inhibition (GI50) in assay [1] (setting [4]) was 100 to 1000 nM; in assay [2] (Mus musculus, CT26, 144 h), above 5000 nM; in assay [3] (setting [5]), 1000 to 5000 nM. The IC50 at His-GST-PARP7 is below 50 nM.

As for `N#Cc1ccc(N2CC3(CN(C(=O)c4cc(Cc5n[nH]c(=O)c6ccc(OC7CCC7)cc56)ccc4F)C3)C2)nc1` [Example 148, 6-(6-(5-((7-cyclobutoxy-4-oxo-3,4-dihydrophthalazin-1-yl)methyl)-2-fluorobenzoyl)-2,6-diazaspiro[3.3]heptan-2-yl)nicotinonitrile], the GI50 in assay [1] (setting [4]) is above 5000 nM; in assay [2] (Mus musculus, CT26, 144 h), above 5000 nM; in assay [3] (setting [5]), above 5000 nM. On His-GST-PARP7, the half-maximal inhibitory concentration (IC50) fell in the range of 500 to 2000 nM.

Take `N#Cc1ccc(N2CCCC23CN(C(=O)c2cc(Cc4n[nH]c(=O)c5ccc(OC6CCC6)cc45)ccc2F)C3)nc1` [Example 149, 6-(2-(5-((7-cyclobutoxy-4-oxo-3,4-dihydrophthalazin-1-yl)methyl)-2-fluorobenzoyl)-2,5-diazaspiro[3.4]octan-5-yl)nicotinonitrile]: the concentration for 50% growth inhibition (GI50) in assay [1] (setting [4]) was above 5000 nM; in assay [2] (Mus musculus, CT26, 144 h) it was above 5000 nM; in assay [3] (setting [5]), above 5000 nM. Further, the half-inhibitory concentration (IC50) on His-GST-PARP7 was 500 to 2000 nM.

Turning to `N#Cc1cnc(N2CCN(C(=O)c3cc(Cc4n[nH]c(=O)c5ccc(OC6CCC6)cc45)ccc3F)CC2)nc1` [Example 154, 2-(4-(5-((7-cyclobutoxy-4-oxo-3,4-dihydrophthalazin-1-yl)methyl)-2-fluorobenzoyl)piperazin-1-yl)pyrimidine-5-carbonitrile], the GI50 was below 100 nM in assay [1] (setting [4]); 1000 to 5000 nM in assay [2] (Mus musculus, CT26, 144 h); 1000 to 5000 nM in assay [3] (setting [5]). The concentration for half-maximal inhibition (IC50) at His-GST-PARP7 was below 50 nM.

With `O=C(c1cc(Cc2n[nH]c(=O)c3ccc(OC4CCC4)cc23)ccc1F)N1CCN(c2cc(C(F)(F)F)ccn2)CC1` [Example 156, 6-cyclobutoxy-4-(4-fluoro-3-(4-(4-(trifluoromethyl)pyridin-2-yl)piperazine-1-carbonyl)benzyl)phthalazin-1(2H)-one], the 50% growth inhibitory concentration (GI50) was 100 to 1000 nM in assay [1] (setting [4]); above 5000 nM in assay [2] (Mus musculus, CT26, 144 h); 1000 to 5000 nM in assay [3] (setting [5]). Moreover, the IC50 on His-GST-PARP7 was below 50 nM.

`CC#Cc1ccc2c(=O)[nH]nc(C(C)N(C)CCC(=O)N3CCN(c4ncc(C(F)(F)F)cn4)CC3)c2c1` (stereo not shown) [Example 193, 4-(1-(methyl(3-oxo-3-(4-(5-(trifluoromethyl)pyrimidin-2-yl)piperazin-1-yl)propyl)amino)ethyl)-6-(prop-1-yn-1-yl)phthalazin-1(2H)-one]: the IC50 at PARP2 (read-out: PARP2 IC50) is above 2000 nM; on His-GST-PARP7 it was below 50 nM. Besides, in assay [1] (setting [4]), the 50% growth inhibitory concentration (GI50) was 100 to 1000 nM.
